# Results as given in US4103082A, “Aminocyclitol derivatives and process for producing the same” (priority 1975, dated 1978).
# Columns and labels:
# E. coli K-12 = assay: paper disk method, inhibitory zone diameter; assay type: cell-based; conditions: Escherichia coli, K12, read-out: inhibitory zone diameter
# [1] = tested on: Staphylococcus aureus 6538P; assay: paper disk method, inhibitory zone diameter; assay type: cell-based; conditions: read-out: inhibitory zone diameter
# [2] = tested on: E. coli HL-1629 (Kanamycin-resistant strain); assay: microbe, parasite or virus in culture; assay type: cell-based; conditions: Escherichia coli, read-out: inhibitory zone diameter
# Klebsiella 6 = assay: paper disk method, inhibitory zone diameter; assay type: cell-based; conditions: Klebsiella, 6; 2000 γ/ml; read-out: inhibitory zone diameter
# Klebsiella 7 = assay: paper disk method, inhibitory zone diameter; assay type: cell-based; conditions: Klebsiella, 7; 2000 γ/ml; read-out: inhibitory zone diameter
# Mycobacterium 607 = assay: paper disk method, inhibitory zone diameter; assay type: cell-based; conditions: Mycobacterium, 607, read-out: inhibitory zone diameter
# Pseudomonas 1007 = assay: paper disk method, inhibitory zone diameter; assay type: cell-based; conditions: Pseudomonas, 1007; 2000 γ/ml; read-out: inhibitory zone diameter
# [3] = tested on: Staphylococcus aureus 209P JC-1; assay: antibacterial activity (Minimum Inhibitory Concentration); assay type: cell-based; conditions: Staphylococcus aureus 209P JC-1; read-out: MIC
# [4] = tested on: Staphylococcus aureus Smith S-424; assay: as above; assay type: cell-based; conditions: SMITHS424; Staphylococcus aureus Smith S-424; read-out: MIC
# [5] = tested on: Staphylococcus aureus No. 26; assay: as above; assay type: cell-based; conditions: Staphylococcus aureus, NO.26
# [6] = tested on: Staphylococcus aureus C73-4; assay: as above; assay type: cell-based; conditions: Staphylococcus aureus, C734
# [7] = tested on: Staphylococcus aureus C73-10; assay: as above; assay type: cell-based; conditions: Staphylococcus aureus, C7310
# [8] = tested on: Staphylococcus aureus C73-21; assay: as above; assay type: cell-based; conditions: C7321; Staphylococcus aureus C73-21; read-out: MIC
# [9] = tested on: Staphylococcus albus PCI-1200A; assay: as above; assay type: cell-based; conditions: PCI1200A; Staphylococcus albus PCI-1200A; read-out: MIC
# [10] = tested on: Bacillus subtilis ATCC 6633; assay: as above; assay type: cell-based; conditions: ATCC6633; Bacillus subtilis ATCC 6633; read-out: MIC
# [11] = tested on: Bacillus anthracis No. 119; assay: microbe, parasite or virus in culture; assay type: cell-based
# E. coli C73-1 = assay: antibacterial activity (Minimum Inhibitory Concentration); assay type: cell-based; conditions: Escherichia coli, C731; E. coli C73-1; read-out: MIC
# E. coli C73-4 = assay: as above; assay type: cell-based; conditions: Escherichia coli, C734; E. coli C73-4; read-out: MIC
# E. coli C73-12 = assay: as above; assay type: cell-based; conditions: Escherichia coli, C7312
# [12] = tested on: Salmonella species C73-30; assay: as above; assay type: cell-based; conditions: C7330
# [13] = tested on: Shigella dysenteriae Shigae; assay: microbe, parasite or virus in culture; assay type: cell-based
# Klebsiella pneumoniae = assay: antibacterial activity (Minimum Inhibitory Concentration); assay type: cell-based
# Proteus morganii Kono = assay: as above; assay type: cell-based; conditions: Morganella morganii
# Proteus species C73-23 = assay: as above; assay type: cell-based; conditions: Proteus species C73-23; read-out: MIC
# Proteus species C73-25 = assay: as above; assay type: cell-based; conditions: Proteus species C73-25; read-out: MIC
# Proteus species C73-34 = assay: as above; assay type: cell-based; conditions: Proteus species C73-34; read-out: MIC
# [14] = tested on: Enterococcus species C73-33; assay: as above; assay type: cell-based; conditions: Enterococcus, C7333
# [15] = tested on: Enterococcus species C73-17; assay: as above; assay type: cell-based; conditions: Enterococcus, C7317
# [16] = tested on: Vibrio parahaemolyticus K-3; assay: as above; assay type: cell-based; conditions: K3; Vibrio parahaemolyticus K-3; read-out: MIC
# [17] = tested on: Vibrio parahaemolyticus K-5; assay: as above; assay type: cell-based; conditions: K5; Vibrio parahaemolyticus K-5; read-out: MIC
# [18] = tested on: Vibrio parahaemolyticus K-7; assay: as above; assay type: cell-based; conditions: K7; Vibrio parahaemolyticus K-7; read-out: MIC
# microorganisms indicated = assay: antimicrobial activities, paper disk method (general statement); assay type: cell-based; conditions: Tables 1 to 4
# Experimental: The inhibitory activities were determined at various concentrations of the compounds using the paper disk method against the microorganisms indicated and the numerical values show the inhibitory zone diameter in terms of mm.
# male ICR mice = assay: acute toxicity; conditions: intravenous administration, 200 mg/kg
compound,measurement,setting,value
"NC[C@H]1O[C@H](O[C@H]2C[C@@H](O)[C@H](N)C[C@@H]2N)[C@H](N)[C@@H](O)[C@@H]1O [5-Deoxyneamine, 5-deoxyneamine]",zone of inhibition at 7.8 µg/mL,E. coli K-12; 7.8 γ/ml,0 mm
same,zone of inhibition at 15.6 µg/mL,E. coli K-12; 15.6 γ/ml,0 mm
same,zone of inhibition at 31.2 µg/mL,E. coli K-12; 31.2 γ/ml,12.1 mm
same,zone of inhibition at 62.5 µg/mL,E. coli K-12; 62.5 γ/ml,14.7 mm
same,zone of inhibition at 125 µg/mL,E. coli K-12; 125 γ/ml,17.2 mm
same,zone of inhibition at 250 µg/mL,E. coli K-12; 250 γ/ml,18.7 mm
same,zone of inhibition at 500 µg/mL,E. coli K-12; 500 γ/ml,22 mm
same,zone of inhibition at 1000 µg/mL,E. coli K-12; 1000 γ/ml,24.5 mm
same,zone of inhibition at 2000 µg/mL,E. coli K-12; 2000 γ/ml,26.6 mm
same,zone of inhibition at 7.8 µg/mL,[1]; 7.8 γ/ml,0 mm
same,zone of inhibition at 15.6 µg/mL,[1]; 15.6 γ/ml,0 mm
same,zone of inhibition at 31.2 µg/mL,[1]; 31.2 γ/ml,0 mm
same,zone of inhibition at 62.5 µg/mL,[1]; 62.5 γ/ml,10.3 mm
same,zone of inhibition at 125 µg/mL,[1]; 125 γ/ml,12.4 mm
same,zone of inhibition at 250 µg/mL,[1]; 250 γ/ml,15.3 mm
same,zone of inhibition at 500 µg/mL,[1]; 500 γ/ml,18.5 mm
same,zone of inhibition at 1000 µg/mL,[1]; 1000 γ/ml,20.4 mm
same,zone of inhibition at 2000 µg/mL,[1]; 2000 γ/ml,22.5 mm
same,zone of inhibition at 1000 µg/mL,[2],0 mm
same,zone of inhibition at 2000 µg/mL,[2],13.9 mm
same,zone of inhibition at 2000 µg/mL,Klebsiella 6,0 mm
same,zone of inhibition at 2000 µg/mL,Klebsiella 7,0 mm
same,zone of inhibition at 62.5 µg/mL,Mycobacterium 607; 62.5 γ/ml,0 mm
same,zone of inhibition at 125 µg/mL,Mycobacterium 607; 125 γ/ml,0 mm
same,zone of inhibition at 250 µg/mL,Mycobacterium 607; 250 γ/ml,10.4 mm
same,zone of inhibition at 500 µg/mL,Mycobacterium 607; 500 γ/ml,16.4 mm
same,zone of inhibition at 1000 µg/mL,Mycobacterium 607; 1000 γ/ml,22 mm
same,zone of inhibition at 2000 µg/mL,Mycobacterium 607; 2000 γ/ml,26.8 mm
same,zone of inhibition at 2000 µg/mL,Pseudomonas 1007,0 mm
same,MIC,[3],0.39 µg/mL
same,MIC,[4],0.78 µg/mL
same,MIC,[5],1.56 µg/mL
same,MIC,[6],1.56 µg/mL
same,MIC,[7],1.56 µg/mL
same,MIC,[8],0.2 µg/mL
same,MIC,[9],0.2 µg/mL
same,MIC,[10],0.39 µg/mL
same,MIC,[11],1.56 µg/mL
same,MIC,E. coli C73-1,12.5 µg/mL
same,MIC,E. coli C73-4,12.5 µg/mL
same,MIC,E. coli C73-12,6.25 µg/mL
same,MIC,[12],12.5 µg/mL
same,MIC,[13],6.25 µg/mL
same,MIC,Klebsiella pneumoniae,6.25 µg/mL
same,MIC,Proteus morganii Kono,6.25 µg/mL
same,MIC,Proteus species C73-23,12.5 µg/mL
same,MIC,Proteus species C73-25,3.13 µg/mL
same,MIC,Proteus species C73-34,12.5 µg/mL
same,MIC,[14],6.25 µg/mL
same,MIC,[15],6.25 µg/mL
same,MIC,[16],0.39 µg/mL
same,MIC,[17],12.5 µg/mL
same,MIC,[18],12.5 µg/mL
same,antimicrobial activities relative to neamine,microorganisms indicated,superior to those of the parent compound neamine
same,"acute toxicity, survival",male ICR mice,all male ICR mice were survived
